Source: paper PMC6882365, “Directed evolution of the PcaV allosteric transcription factor to generate a biosensor for aromatic aldehydes” (Journal of Biological Engineering, 2019)
Each block holds one molecule with its values, some of them ahead of it.

Columns and labels:
[1] = target: T1, Van2 (PcaV mutant) (Streptomyces coelicolor, UniProt Q9XAM6, I110V/M113S/N114A); test: cell-based; conditions: read-out: E. coli RARE eGFP derepression reporter, 2.5 mM
T1 construct: gene SCO6704

[2] = target: T2, PcaV (Streptomyces coelicolor, UniProt Q9XAM6); test: E. coli PcaV/PPV-eGFP derepression reporter, dose response; format: cell-based
T2 construct: gene SCO6704

[3] = target: Van2 aTF (PcaV I110V M113S N114A) (Streptomyces coelicolor); test: SEC-MALS; 0.75 mL at 1.5 mg/mL loaded on Superdex 10/300 GL; in the absence of the effector
[4] = target: T3, PcaV I110V (Streptomyces coelicolor, UniProt Q9XAM6, I110V); test: cell-based; conditions: read-out: Max/Min (2.5 mM induction) / PCA
T3 construct: gene SCO6704

[5] = target: T4, Van2 (PcaV mutant) (Streptomyces coelicolor, UniProt Q9XAM6, I110V/M113S/N114A); test: EMSA titration ([…]), disruption of the Van2-PV DNA complex; no response in cells; format: biochemical
T4 construct: gene SCO6704; His-TEV tag-cleaved purified protein, homodimer
T4 sequence (Q9XAM6 1-154 I110V/M113S/N114A): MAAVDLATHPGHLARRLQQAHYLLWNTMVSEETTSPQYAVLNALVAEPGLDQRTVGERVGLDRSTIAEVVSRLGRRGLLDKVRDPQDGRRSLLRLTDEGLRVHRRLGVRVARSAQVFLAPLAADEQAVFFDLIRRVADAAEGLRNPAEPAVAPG

[6] = target: T5, PcaV N114A (Streptomyces coelicolor, UniProt Q9XAM6, N114A); test: cell-based; conditions: read-out: Max/Min (2.5 mM induction) / PCA
T5 construct: gene SCO6704

[7] = target: PcaV allosteric transcription factor from Streptomyces coelicolor (Streptomyces coelicolor); test: SEC-MALS; 0.75 mL at 1.5 mg/mL loaded on Superdex 10/300 GL; in the absence of the effector
[8] = target: T6, Van2 (Streptomyces coelicolor, UniProt Q9XAM6 1-154, I110V;M113S;N114A); test: SPR; no effector; 9.4-600 nM protein; SPR: 10 mM Hepes, 150 mM NaCl, pH 7.4 (temperature not stated); EMSA: 50 mM Tris-HCl, 50 mM KCl, 5 mM MgCl2, 1 mM EDTA, 5% glycerol, 0.1 ug poly(dI-dC), 1 mM DTT, 30 C 20 min (+30 min with ligand); conditions: protein: recombinant; tags: N-terminal His-TEV, removed by TEV protease; chain copies: 2; label: 5' biotin on strand 1; blunt
T6 sequence: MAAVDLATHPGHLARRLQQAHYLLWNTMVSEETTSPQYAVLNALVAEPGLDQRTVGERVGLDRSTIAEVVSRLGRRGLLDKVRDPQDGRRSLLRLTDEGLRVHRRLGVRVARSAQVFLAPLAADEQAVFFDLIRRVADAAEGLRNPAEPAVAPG

[9] = target: T7, PcaV (Streptomyces coelicolor, UniProt Q9XAM6 1-154); test: EMSA; no effector; 250 nM protein, 500 pM probe; SPR: 10 mM Hepes, 150 mM NaCl, pH 7.4 (temperature not stated); EMSA: 50 mM Tris-HCl, 50 mM KCl, 5 mM MgCl2, 1 mM EDTA, 5% glycerol, 0.1 ug poly(dI-dC), 1 mM DTT, 30 C 20 min (+30 min with ligand); conditions: protein: recombinant; tags: N-terminal His-TEV, removed by TEV protease; chain copies: 2; label: 5' IRD700 on both strands; blunt
T7 sequence: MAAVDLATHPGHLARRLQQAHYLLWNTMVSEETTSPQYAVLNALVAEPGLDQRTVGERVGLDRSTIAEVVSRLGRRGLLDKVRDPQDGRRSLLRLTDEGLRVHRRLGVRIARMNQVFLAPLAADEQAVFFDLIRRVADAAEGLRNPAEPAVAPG

[10] = target: T6, Van2; test: EMSA; no effector; 500 nM protein, 500 pM probe; SPR: 10 mM Hepes, 150 mM NaCl, pH 7.4 (temperature not stated); EMSA: 50 mM Tris-HCl, 50 mM KCl, 5 mM MgCl2, 1 mM EDTA, 5% glycerol, 0.1 ug poly(dI-dC), 1 mM DTT, 30 C 20 min (+30 min with ligand); conditions: protein: recombinant; tags: N-terminal His-TEV, removed by TEV protease; chain copies: 2; label: 5' IRD700 on both strands; blunt

Molecule: O=Cc1ccccc1O [2-hydroxybenzaldehyde]
fold induction at 2500 µM [1]: > 6

Molecule: O=C(O)c1ccc(O)cc1 [4HB, 4-hydroxybenzoic acid]
E. coli PcaV/PPV-eGFP derepression reporter, dose response [2]: 3-hydroxybenzoic acid (3HB) and 4-hydroxybenzoic acid (4HB), as observed by fitting the dose response curves

Molecule: Cc1cc(C=O)ccc1O [4-hydroxy-3-methylbenzaldehyde]
fold induction at 2500 µM [1]: > 6

Molecule: O=Cc1ccc(O)c(O)c1 [3,4-dihydroxybenzaldehyde]
fold induction at 2500 µM [1]: > 6

stoichiometry N [3]: 2
Molecule: Van2 aTF (PcaV I110V M113S N114A)

Molecule: O=C(O)c1ccc(O)c(O)c1 [PCA, 3,4-dihydroxybenzoic acid]
fold induction at 2500 µM [4]: 304
EMSA titration (2.5-12.5 mM), disruption of the Van2-PV DNA complex; no response [5]: Van2 responds to vanillin but is still responsive to PCA in contradiction with the observed in vivo biosensor performance
fold induction at 2500 µM [6]: 18

stoichiometry N [7]: 2
Molecule: PcaV allosteric transcription factor from Streptomyces coelicolor (natural protein)

Molecule: O=C(O)c1cccc(O)c1 [3HB, 3-hydroxybenzoic acid]
E. coli PcaV/PPV-eGFP derepression reporter, dose response [2]: 3-hydroxybenzoic acid (3HB) and 4-hydroxybenzoic acid (4HB), as observed by fitting the dose response curves

B1: PV Probe Bio (dsDNA)
DNA 1: TTGACTATACTCAGTGCCCTGACTATGATACT
DNA 2: AGTATCATAGTCAGGGCACTGAGTATAGTCAA
Kd [8]: 86.7 nM

B2: PV Probe (IR700 duplex) (dsDNA)
DNA 1: TTGACTATACTCAGTGCCCTGACTATGATACT
DNA 2: AGTATCATAGTCAGGGCACTGAGTATAGTCAA
binding result [9]: binds

B3: Rnd Probe (IR700 duplex) (dsDNA)
DNA 1: GAGTTAGAGTACGCGTTAAACACTTCACAGAT
DNA 2: ATCTGTGAAGTGTTTAACGCGTACTCTAACTC
binding result [10]: no binding
